Source: the NIST ThermoML archive (doi:10.1021/je060271a)

Settings: 323.15 K, Liquid, Vibrating tube method

CCCCCCCC(=O)OCC(COC(=O)CCCCCCC)(COC(=O)CCCCCCC)COC(=O)CCCCCCC [pentaerythritol tetraoctanoate]
Settings	mass density [kg/m3]
16301 kPa	951.3
16330 kPa	951.2
16376 kPa	951.3
16399 kPa	951.4
16422 kPa	951.4
16451 kPa	951.3
16486 kPa	951.5
16514 kPa	951.3
16560 kPa	951.4
16590 kPa	951.6
16619 kPa	951.6
16654 kPa	951.5
16683 kPa	951.5
16714 kPa	951.6
16744 kPa	951.6
16780 kPa	951.7
16810 kPa	951.5
16846 kPa	951.5
16876 kPa	951.7
16907 kPa	951.6
16937 kPa	951.7
16974 kPa	951.6
17005 kPa	951.8
17037 kPa	951.9
17074 kPa	951.8
17106 kPa	951.8
17140 kPa	951.8
17172 kPa	951.9
17203 kPa	951.8
17241 kPa	951.9
17266 kPa	951.9
17311 kPa	951.8
17344 kPa	951.9
17376 kPa	951.9
17414 kPa	952
17448 kPa	951.9
17480 kPa	952
17513 kPa	951.9
17554 kPa	952
17583 kPa	952.2
17622 kPa	952.1
17656 kPa	952.1
17696 kPa	952.2
17730 kPa	952.1
17763 kPa	952.1
17797 kPa	952.3
17838 kPa	952.3
17872 kPa	952.2
17907 kPa	952.2
17948 kPa	952.3
17984 kPa	952.3
18019 kPa	952.4
18055 kPa	952.5
18097 kPa	952.4
18132 kPa	952.3
18168 kPa	952.3
18210 kPa	952.5
18246 kPa	952.5
18282 kPa	952.4
18325 kPa	952.6
18361 kPa	952.5
18398 kPa	952.7
18442 kPa	952.6
18479 kPa	952.7
18516 kPa	952.6
18554 kPa	952.7
18599 kPa	952.7
18637 kPa	952.7
18682 kPa	952.7
18720 kPa	952.8
18758 kPa	952.8
18796 kPa	952.7
18843 kPa	952.9
18882 kPa	952.8
18922 kPa	952.9
18970 kPa	953
19012 kPa	953
19056 kPa	953
19097 kPa	953
19139 kPa	953.1
19166 kPa	952.9
19197 kPa	953.2
19223 kPa	953.1
19250 kPa	953.1
19282 kPa	953
19308 kPa	953.1
19341 kPa	953.3
19368 kPa	953.2
19395 kPa	953.2
19422 kPa	953.3
19456 kPa	953.2
19483 kPa	953.2
19511 kPa	953.2
19543 kPa	953.4
19571 kPa	953.3
19603 kPa	953.2
19632 kPa	953.3
19660 kPa	953.4
19688 kPa	953.4
19722 kPa	953.4
19750 kPa	953.4
19778 kPa	953.4
19812 kPa	953.4
19842 kPa	953.6
19871 kPa	953.4
19905 kPa	953.5
19934 kPa	953.4
19962 kPa	953.5
19997 kPa	953.5
20055 kPa	953.4
20090 kPa	953.6
20119 kPa	953.6
20149 kPa	953.7
20185 kPa	953.7
20216 kPa	953.7
20246 kPa	953.7
20276 kPa	953.7
20307 kPa	953.8
20343 kPa	953.7
20373 kPa	953.7
20404 kPa	953.7
20441 kPa	953.8
20471 kPa	953.8
20502 kPa	953.9
20538 kPa	953.8
20570 kPa	954
20601 kPa	953.9
20634 kPa	954
20667 kPa	954
20705 kPa	954
20736 kPa	954
20767 kPa	954
20805 kPa	954.1
20836 kPa	954.1
20868 kPa	954
20906 kPa	954
20938 kPa	954.2
20970 kPa	954.1
21008 kPa	954.2
21041 kPa	954.1
21074 kPa	954.1
21107 kPa	954.2
21146 kPa	954.2
21178 kPa	954.1
21218 kPa	954.3
21251 kPa	954.4
21284 kPa	954.4
21324 kPa	954.4
21358 kPa	954.4
21391 kPa	954.4
21431 kPa	954.4
21466 kPa	954.4
21500 kPa	954.5
21542 kPa	954.5
21576 kPa	954.5
21604 kPa	954.5
21646 kPa	954.4
21680 kPa	954.7
21722 kPa	954.6
21756 kPa	954.6
21798 kPa	954.5
21832 kPa	954.6
21946 kPa	954.8
21982 kPa	954.6
22025 kPa	954.7
22061 kPa	954.8
22097 kPa	954.7
22134 kPa	954.9
22178 kPa	954.9
22215 kPa	954.9
22259 kPa	954.9
22295 kPa	955
22325 kPa	954.9
22369 kPa	954.9
22414 kPa	955
22451 kPa	955.1
22490 kPa	955.1
22537 kPa	955.1
22576 kPa	955
22616 kPa	955.2
22664 kPa	955.1
22705 kPa	955.3
22743 kPa	955.2
22780 kPa	955.2
22834 kPa	955.5
22861 kPa	955.3
22894 kPa	955.3
22922 kPa	955.3
22950 kPa	955.3
22983 kPa	955.3
23011 kPa	955.4
23038 kPa	955.4
23066 kPa	955.4
23100 kPa	955.3
23127 kPa	955.5
23161 kPa	955.5
23189 kPa	955.5
23217 kPa	955.6
23250 kPa	955.5
23279 kPa	955.6
23308 kPa	955.5
23344 kPa	955.5
23372 kPa	955.7
23400 kPa	955.5
23429 kPa	955.7
23464 kPa	955.7
23492 kPa	955.6
23521 kPa	955.6
23556 kPa	955.6
23585 kPa	955.8
23614 kPa	955.8
23649 kPa	955.8
23679 kPa	955.8
23709 kPa	955.9
23740 kPa	955.8
23769 kPa	955.8
23804 kPa	955.8
23834 kPa	955.8
23869 kPa	955.8
23899 kPa	955.9
23929 kPa	955.9
23965 kPa	955.9
23995 kPa	955.9
24025 kPa	955.9
24062 kPa	956
24092 kPa	955.9
24124 kPa	955.9
24161 kPa	956
24191 kPa	956.2
24223 kPa	956.1
24260 kPa	956.1
24291 kPa	956
24322 kPa	956.2
24354 kPa	956.1
24391 kPa	956.2
24422 kPa	956.1
24460 kPa	956.2
24491 kPa	956.3
24523 kPa	956.3
24562 kPa	956.3
24594 kPa	956.3
24626 kPa	956.3
24658 kPa	956.4
24696 kPa	956.4
24728 kPa	956.4
24766 kPa	956.4
24799 kPa	956.4
24832 kPa	956.5
24871 kPa	956.5
24903 kPa	956.5
24936 kPa	956.6
24976 kPa	956.5
25008 kPa	956.6
25042 kPa	956.6
25075 kPa	956.5
25115 kPa	956.5
25149 kPa	956.7
25188 kPa	956.6
25222 kPa	956.6
25256 kPa	956.7
25290 kPa	956.7
25330 kPa	956.6
25364 kPa	956.7
25398 kPa	956.8
25439 kPa	956.8
25474 kPa	956.8
25509 kPa	956.8
25550 kPa	956.8
25584 kPa	957
25619 kPa	956.9
25654 kPa	957
25695 kPa	957
25729 kPa	956.9
25771 kPa	957
25806 kPa	957.1
25842 kPa	957.1
25878 kPa	957.1
25920 kPa	957.1
25957 kPa	957
25993 kPa	957.2
26028 kPa	957.1
26071 kPa	957.1
26107 kPa	957.1
26150 kPa	957.2
26186 kPa	957.2
26223 kPa	957.3
26259 kPa	957.3
26303 kPa	957.3
26340 kPa	957.2
26384 kPa	957.3
26421 kPa	957.5
26460 kPa	957.3
26498 kPa	957.4
26535 kPa	957.4
26579 kPa	957.5
